Reference: patent US11555012B2 (Nimbus Artemis, Inc., priority 2018, dated 2023)

What follows are molecules tested against ACL (Homo sapiens (Human), UniProt P53396) (assay: ADP-Glo Assay).
Sequence of ACL (P53396 other isoform, or with tags, fused parts or gaps isoform P53396-2): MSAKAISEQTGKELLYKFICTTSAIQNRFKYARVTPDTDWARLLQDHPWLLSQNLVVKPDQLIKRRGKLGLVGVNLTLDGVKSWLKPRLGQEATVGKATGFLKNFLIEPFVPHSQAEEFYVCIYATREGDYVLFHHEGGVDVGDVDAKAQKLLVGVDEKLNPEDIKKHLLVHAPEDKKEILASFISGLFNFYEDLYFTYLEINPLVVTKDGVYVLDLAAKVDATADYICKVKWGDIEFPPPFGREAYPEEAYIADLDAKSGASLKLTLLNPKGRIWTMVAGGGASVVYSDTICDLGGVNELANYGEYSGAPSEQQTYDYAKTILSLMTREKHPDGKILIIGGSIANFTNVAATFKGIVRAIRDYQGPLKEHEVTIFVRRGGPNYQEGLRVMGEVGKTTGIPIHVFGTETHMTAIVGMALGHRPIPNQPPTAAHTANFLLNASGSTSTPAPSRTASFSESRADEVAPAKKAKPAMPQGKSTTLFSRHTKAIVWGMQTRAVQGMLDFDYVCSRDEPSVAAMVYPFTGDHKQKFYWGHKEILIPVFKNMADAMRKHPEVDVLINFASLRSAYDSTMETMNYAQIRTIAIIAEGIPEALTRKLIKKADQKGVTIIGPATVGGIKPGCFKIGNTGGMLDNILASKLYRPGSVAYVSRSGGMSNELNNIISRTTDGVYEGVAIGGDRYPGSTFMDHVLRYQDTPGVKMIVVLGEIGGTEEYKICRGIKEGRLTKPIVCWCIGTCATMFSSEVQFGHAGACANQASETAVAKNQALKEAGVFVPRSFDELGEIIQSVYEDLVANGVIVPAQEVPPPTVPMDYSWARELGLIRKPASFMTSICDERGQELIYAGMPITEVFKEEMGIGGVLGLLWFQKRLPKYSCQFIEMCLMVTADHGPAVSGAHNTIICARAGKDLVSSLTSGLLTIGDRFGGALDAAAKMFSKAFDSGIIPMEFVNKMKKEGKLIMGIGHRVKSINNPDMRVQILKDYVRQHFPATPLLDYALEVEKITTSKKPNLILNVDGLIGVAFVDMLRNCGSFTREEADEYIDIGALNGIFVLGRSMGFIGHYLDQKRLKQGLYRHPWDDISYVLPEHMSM
Protocol: Compounds of the present invention were evaluated in an ADP-GLO assay as follows:
b) Add 0.1 μL diluted cpd solution to assay plate, each dose with 2 replicates c) Centrifuge 1000 RPM for 1 min d) Add 5 μL ACL working solution to 384-well assay plate, centrifuge 1000 RPM for 1 min e) Incubate at 25° C. for 15 min f) Add 5 μL substrate working solution to initiate reaction
h) Reference final conc: 30 uM starting Conc, 3× dilution, 11+0 points. Test cpd conc: 30/100 uM starting Conc, 3× dilution, 11+0 points. i) Incubate at 25° C. for 60 min j) Add 10 μL ADP Glo reagent, centrifuge 1000 RPM for 1 min k) Incubate at 25° C. for 40 min l) Add 20 μL kinase detection reagent, centrifuge 1000 RPM for 1 min m) Incubate at 25° C. for 40 min n) Read on Envision for US LUM as RLU

IC50 [µM] | SMILES
0.5 to 20 | CCC(=O)Oc1ccccc1S(=O)(=O)Nc1cc(-c2ccccc2)ccc1F [I-121, 2-[(2-fluoro-5-phenylphenyl)sulfamoyl]phenyl Propanoate]
0.5 to 20 | Cc1noc(C)c1S(=O)(=O)Nc1cc(-c2ccccc2)ccc1C(=O)O [I-351, 3-((3,5-dimethylisoxazole)-4-sulfonamido)-[1,1′-biphenyl]-4-carboxylic Acid]
0.5 to 20 | O=C(O)c1ccc(-c2ccccc2)cc1NS(=O)(=O)c1cccc(C(F)(F)F)n1 [I-312, 3-((6-(trifluoromethyl)pyridine)-2-sulfonamido)-[1,1′-biphenyl]-4-carboxylic Acid]
> 20 | COc1ccc(-c2ccccc2)cc1NS(=O)(=O)c1cccc(-c2nnnn2C)c1 [I-437, N-(2-methoxy-5-phenylphenyl)-3-(1-methyl-1H-1,2,3,4-tetrazol-5-yl)benzene-1-sulfonamide]
0.5 to 20 | COc1c(Cl)cc(C#N)cc1S(=O)(=O)Nc1cc(-c2ccccc2)ccc1F [I-51, 3-chloro-5-cyano-N-(4-fluoro-[1,1′-biphenyl]-3-yl)-2-methoxybenzenesulfonamide]
0.5 to 20 | O=C(O)c1ccc(-c2ccccc2)cc1NS(=O)(=O)c1ccc2[nH]c(=O)[nH]c2c1 [I-258]
0.5 to 20 | O=C(Nc1cc(Br)ccc1C(=O)O)c1cc(Cl)cc(Cl)c1 [I-519, 4-bromo-2-(3,5-dichlorobenzamido)benzoic Acid]
0.5 to 20 | O=C(O)c1sccc1NS(=O)(=O)c1cc(Cl)cc(Cl)c1 [I-362, 3-((3,5-dichlorophenyl)sulfonamido)thiophene-2-carboxylic Acid]
> 20 | COc1ccc(-c2ccccc2)cc1NS(=O)(=O)c1ccc(O)c(Cl)c1 [I-416, 3-chloro-4-hydroxy-N-(2-methoxy-5-phenylphenyl)benzene-1-sulfonamide]
0.5 to 20 | O=S(=O)(Nc1cccc(-n2nccn2)c1)c1cc(Cl)cc(Cl)c1O [I-177]

More lines, now with the values behind:

SMILES | IC50 [µM]
O=C(COc1c(Br)cc(Cl)cc1S(=O)(=O)N(Cc1ccccc1)c1cc(-c2ccccc2)ccc1F)OCc1ccccc1 [I-420, benzyl 2-(2-(N-benzyl-N-(4-fluoro-[1,1′-biphenyl]-3-yl)sulfamoyl)-6-bromo-4-chlorophenoxy)acetate] | > 20
COc1ccc(-c2ccccc2)cc1NS(=O)(=O)c1cc(Cl)c[nH]c1=O [I-354, 5-chloro-N-[4-methoxy-[1,1-biphenyl]-3-yl]-2-oxo-1,2-dihydropyridine-3-sulfonamide] | 0.5 to 20
COc1ccc(-c2ccccc2)cc1NC(=O)c1cc(Cl)cc(Cl)c1O [I-18, 3,5-dichloro-2-hydroxy-N-(4-methoxy-[1,1′-biphenyl]-3-yl)benzamide] | 0.5 to 20
COc1ccc(-c2ccccc2)cc1NS(=O)(=O)c1cc(CC(=O)O)cc(Cl)c1OC [I-439, 2-[3-chloro-4-methoxy-5-[(2-methoxy-5-phenylphenyl)sulfamoyl]phenyl]acetic Acid] | > 20
O=S(=O)(Nc1cc(-c2ccccc2)c(F)cc1F)c1cc(Cl)cc(C(F)(F)F)c1 [I-204, 3-chloro-N-[4,6-difluoro-[1,1-biphenyl]-3-yl]-5-(trifluoromethyl)benzene-1-sulfonamide] | 0.5 to 20
CN(C)C(=O)Oc1c(Cl)cc(C(=O)N2CCC2)cc1S(=O)(=O)Nc1cc(-c2ccccc2)c(F)cc1F [I-209, 4-(azetidine-1-carbonyl)-2-chloro-6-([4,6-difluoro-[1,1-biphenyl]-3-yl]sulfamoyl)phenyl N,N-dimethylcarbamate] | 0.5 to 20
COc1ccc(-c2ccccc2)cc1NS(=O)(=O)c1ccc(C#N)cc1 [I-410, 4-cyano-N-(2-methoxy-5-phenylphenyl)benzene-1-sulfonamide] | > 20
COc1ccc(-c2ccccc2)cc1NS(=O)(=O)c1ccccc1O [I-528, 2-hydroxy-N-(4-methoxy-[1,1′-biphenyl]-3-yl)benzenesulfonamide] | > 20
CS(=O)(=O)c1ccccc1S(=O)(=O)Nc1cc(-c2ccccc2)c(F)cc1F [I-385, N-[4,6-difluoro-[1,1-biphenyl]-3-yl]-2-methanesulfonylbenzene-1-sulfonamide] | > 20
